Measurements: patent US20050282887A1, “Novel sulfamate and sulfamide derivatives useful for the treatment of epilepsy and related disorders” (priority 2004, published 2005)

What was measured:
CF-1 male albino mice = experiment: Maximal Electroshock Test (MES), anticonvulsant activity; format: in vivo
Experimental: Anticonvulsant activity was determined using the MES test, run according to the procedure described in detail below. Swinyard E A, Woodhead J H, White H S, Franklin M R. Experimental selection, quantification, and evaluation of anticonvulsants. In Levy R H, et al., eds. Antiepileptic Drugs. 3rd ed. New York: Raven Press, 1989:85-102
CF-1 male albino mice (25-35 g) were fasted for 16 hours before testing. Mice were randomly selected into control and test groups, with the animals dosed with vehicle or test compound, at varying concentrations, respectively. On the study date, at 30 minutes prior to shock, the mice were orally dosed with vehicle (0.5% methylcellulose) or test compound (100-300 mg/kg). Seizures were induced by trans-corneal electric shock using a 60-Hz alternating current, 50 mA, delivered for 0.2 sec. The mice in the test groups were subjected to electrical stimulus at time intervals between 15 minutes and 4 hours following administration of test compound. […] The test was complete when the entire course of the convulsion has been observed (typically, less than 1 minute after electrical stimulation), and the mice were then immediately euthanized by carbon dioxide inhalation.
Abolition of the full body tonic extensor component of the seizure was taken as the endpoint of the test. […] The ED50 value of the test compound (calculated when appropriate) was the calculated dose required to block the hind limb tonic-extensor component of the MES-induced seizure in 50% of the rodents tested. A probit analysis was used to calculate the ED50 and 95% fiducial limits (FL).
Representative compounds of the present invention were tested according to the procedure described above, with results as listed in Table 4 below. Results are listed as number of mice with full body tonic extension prevented/total number of mice tested @ a given time (at a given test compound dosage level).

carbonic anhydrase = settings: cited from earlier work

Compound: CN(C)S(=O)(=O)NCC1COc2ccccc2O1 (racemic) [Compound #6, N-(2,3-Dihydro-benzo[1,4]dioxin-2-ylmethyl)-N′,N′ dimethylsulfamide]
- melting point: 76 to 78 °C
- MES Activity: number of mice with full body tonic extension prevented/total number of mice tested (CF-1 male albino mice; @ 0.5 h, 300 mg/kg oral): 4/5 @ 0.5 h (300 mg/kg)

Compound: CN(CC1COc2ccccc2O1)S(N)(=O)=O (racemic) [Compound #7, N-(2,3-Dihydro-benzo[1,4]dioxin-2-ylmethyl)-N-methylsulfamide]
- melting point: 97 to 98 °C
- MES Activity: number of mice with full body tonic extension prevented/total number of mice tested (CF-1 male albino mice; @ 0.5 h, 300 mg/kg oral): 3/3 @ 0.5 h (300 mg/kg)

Compound: NS(=O)(=O)NCC1COc2ccccc2OC1 [Compound #3, ((3,4-Dihydro-2H-benzo[b][1,4]dioxepin-3-yl)methyl)sulfamide]
- MES Activity: number of mice with full body tonic extension prevented/total number of mice tested (CF-1 male albino mice; @ 1 h, 300 mg/kg oral): 2/3 @ 1 h (300 mg/kg)

Compound: NS(=O)(=O)OC[C@H]1COc2cc(Cl)ccc2O1 [Compound #12, Sulfamic acid, 6-chloro-2,3-dihydro-benzo[1,4]dioxin-2-ylmethyl ester]
- melting point: 113 to 116 °C
- MES Activity: number of mice with full body tonic extension prevented/total number of mice tested (CF-1 male albino mice; @ 4 h, 100 mg/kg oral): 3/5 @ 4 h (100 mg/kg)

Compound: NS(=O)(=O)NC[C@H]1COc2ccccc2O1 [Compound #4, (2S)-(−)-N-(2,3-Dihydro-benzo[1,4]dioxin-2-ylmethyl)-sulfamide]
- MES Activity: number of mice with full body tonic extension prevented/total number of mice tested (CF-1 male albino mice; @ 1 h, 300 mg/kg oral): 5/5 @ 1 h (300 mg/kg)

Compound: Nc1ccc2c(c1)O[C@@H](CNS(N)(=O)=O)CO2 [Compound #36, (2S)-(−)-N-(7-Amino-2,3-dihydro-benzo[1,4]dioxin-2-ylmethyl)-sulfamide]
- MES Activity (result in words) (CF-1 male albino mice; @ 100 and 300 mg/kg oral): Inactive @ 100 and 300 mg/kg

Compound: NS(=O)(=O)NC[C@H]1COc2cc(Cl)ccc2O1 [Compound #8, (2S)-(−)-N-(6-Chloro-2,3-dihydro-benzo[1,4]dioxin-2-ylmethyl)-sulfamide]
- MES Activity: number of mice with full body tonic extension prevented/total number of mice tested (CF-1 male albino mice; @ 3 h, 100 mg/kg oral): 3/5 @ 3 h (100 mg/kg)

Compound: NS(=O)(=O)NC[C@H]1COc2ccc(Cl)cc2O1 [compound 14, (2S)-(−)-N-(7-Chloro-2,3-dihydro-benzo[1,4]dioxin-2-ylmethyl)-sulfamide]
- MES Activity: number of mice with full body tonic extension prevented/total number of mice tested (CF-1 male albino mice; @ 4 h, 100 mg/kg oral): 3/5 @ 4 h (100 mg/kg)

Compound: Sulfamic acid, 6,7 dichloro-2,3-dihydro-benzo[1,4]dioxin-2-ylmethyl ester [Compound #27]
- MES Activity: number of mice with full body tonic extension prevented/total number of mice tested (CF-1 male albino mice; @ 4 h, 100 mg/kg oral): 5/5 @ 4 h (100 mg/kg)

Compound: NS(=O)(=O)NCC1COc2ccccc2O1 (racemic) [Compound #1, N-(2,3-Dihydro-benzo[1,4]dioxin-2-ylmethyl)-sulfamide]
- MES Activity: number of mice with full body tonic extension prevented/total number of mice tested (CF-1 male albino mice; @ 1 h, 300 mg/kg oral): 2/4 @ 1 h (300 mg/kg)

Compound: NS(=O)(=O)NC[C@H]1COc2ccc([N+](=O)[O-])cc2O1 [compound 18, (2S)-(−)-N-(2,3-Dihydro-7-nitro-benzo[1,4]dioxin-2-ylmethyl)-sulfamide]
- MES Activity (result in words) (CF-1 male albino mice; @ 100 mg/kg oral): Inactive @ 100 mg/kg

Compound: NS(=O)(=O)NCC1Oc2ccccc2O1 [Compound #2, (Benzo[1,3]dioxol-2-ylmethyl)sulfamide]
- MES Activity: number of mice with full body tonic extension prevented/total number of mice tested (CF-1 male albino mice; @ 2 h, 100 mg/kg oral): 4/4 @ 2 h (100 mg/kg)

Compound: NS(=O)(=O)NC[C@H]1COc2cc(Cl)c(Cl)cc2O1 [Compound #29, (2S)-(−)-N-(6,7 Dichloro-2,3-dihydro-benzo[1,4]dioxin-2-ylmethyl)-sulfamide]
- melting point: 119 to 121 °C
- MES Activity: number of mice with full body tonic extension prevented/total number of mice tested (CF-1 male albino mice; @ 4 h, 100 mg/kg oral): 3/5 @ 4 h (100 mg/kg)

Compound: CC1(C)O[C@@H]2[C@@H](CO[C@@]3(COS(N)(=O)=O)OC(C)(C)O[C@@H]23)O1 [Topiramate]
- carbonic anhydrase inhibition (carbonic anhydrase): single digit micromolar

Compound: NS(=O)(=O)NCC1CCc2ccccc2O1 (stereo not drawn) [Compound #10, Chroman-2-ylmethylsulfamide]
- melting point: 100 to 101 °C
- MES Activity: number of mice with full body tonic extension prevented/total number of mice tested (CF-1 male albino mice; @ 1 h, 100 mg/kg oral): 1/5 @ 1 h (100 mg/kg)

Compound: NS(=O)(=O)OCC1CCc2ccccc2O1 (stereo not drawn) [Compound #11, Chroman-2-ylmethylsulfamate]
- melting point: 87 to 90 °C

Compound: Cc1ccc2c(c1)O[C@@H](CNS(N)(=O)=O)CO2 [Compound #19, (2S)-(−)-N-(7-Methyl-2,3-dihydro-benzo[1,4]dioxin-2-ylmethyl)-sulfamide]
- MES Activity: number of mice with full body tonic extension prevented/total number of mice tested (CF-1 male albino mice; @ 0.5 h, 300 mg/kg oral): 5/5 @ 0.5 h (300 mg/kg)

Compound: NS(=O)(=O)NCCC1COc2ccccc2O1 (stereo not drawn) [Compound #16, 2-(2,3-Dihydro-benzo[1,4]dioxin-2-yl)-ethylsulfamide]
- melting point: 101 to 103 °C
- MES Activity: number of mice with full body tonic extension prevented/total number of mice tested (CF-1 male albino mice; @ 0.5 h, 300 mg/kg oral): 5/5 @ 0.5 h (300 mg/kg)
